Target: Glutamate NMDA receptor; GRIN1/GRIN2A (Homo sapiens, UniProt Q05586+Q12879)
Experiment: TBD: TBD
Type: protein-complex assay

Glutamate NMDA receptor; GRIN1/GRIN2A, sequence (Q12879 whole entry, other chains not shown): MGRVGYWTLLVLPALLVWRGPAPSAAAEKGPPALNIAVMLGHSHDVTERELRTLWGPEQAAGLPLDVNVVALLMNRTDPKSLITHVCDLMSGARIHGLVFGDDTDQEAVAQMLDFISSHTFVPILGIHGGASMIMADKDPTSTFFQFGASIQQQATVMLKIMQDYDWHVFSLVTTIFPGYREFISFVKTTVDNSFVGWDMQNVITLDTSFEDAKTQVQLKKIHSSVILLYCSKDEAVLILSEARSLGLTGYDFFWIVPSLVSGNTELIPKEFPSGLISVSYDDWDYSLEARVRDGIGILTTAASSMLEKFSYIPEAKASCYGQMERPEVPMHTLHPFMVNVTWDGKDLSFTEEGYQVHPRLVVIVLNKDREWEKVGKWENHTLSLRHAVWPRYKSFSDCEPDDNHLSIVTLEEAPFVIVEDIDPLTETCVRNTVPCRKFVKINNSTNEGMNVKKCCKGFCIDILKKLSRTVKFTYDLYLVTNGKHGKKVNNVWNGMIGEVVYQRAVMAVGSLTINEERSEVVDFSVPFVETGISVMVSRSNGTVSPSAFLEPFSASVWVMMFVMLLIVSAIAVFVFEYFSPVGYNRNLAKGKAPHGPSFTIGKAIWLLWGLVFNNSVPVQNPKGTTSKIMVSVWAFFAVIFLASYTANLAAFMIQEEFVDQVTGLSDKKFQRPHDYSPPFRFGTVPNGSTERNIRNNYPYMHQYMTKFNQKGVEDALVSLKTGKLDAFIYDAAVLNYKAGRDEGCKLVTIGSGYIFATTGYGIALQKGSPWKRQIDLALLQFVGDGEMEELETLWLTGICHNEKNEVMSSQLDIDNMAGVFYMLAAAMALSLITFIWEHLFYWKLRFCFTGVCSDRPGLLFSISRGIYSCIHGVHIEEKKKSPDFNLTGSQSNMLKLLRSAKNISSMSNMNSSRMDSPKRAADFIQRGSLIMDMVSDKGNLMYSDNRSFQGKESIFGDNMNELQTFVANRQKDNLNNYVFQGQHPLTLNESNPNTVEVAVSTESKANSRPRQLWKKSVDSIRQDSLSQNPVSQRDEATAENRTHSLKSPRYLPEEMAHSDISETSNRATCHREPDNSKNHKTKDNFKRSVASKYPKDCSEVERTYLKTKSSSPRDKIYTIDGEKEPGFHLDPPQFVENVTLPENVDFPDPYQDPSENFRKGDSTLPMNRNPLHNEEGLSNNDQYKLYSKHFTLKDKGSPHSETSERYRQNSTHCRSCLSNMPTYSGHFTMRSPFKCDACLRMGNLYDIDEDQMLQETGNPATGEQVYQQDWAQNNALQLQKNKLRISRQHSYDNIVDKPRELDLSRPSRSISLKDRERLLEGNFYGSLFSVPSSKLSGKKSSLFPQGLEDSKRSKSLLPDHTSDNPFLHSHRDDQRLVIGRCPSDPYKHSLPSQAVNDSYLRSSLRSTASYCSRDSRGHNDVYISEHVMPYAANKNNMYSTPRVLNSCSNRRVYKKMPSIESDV

- EC50: 4.4 µM
Structure (SMILES): CCN(Cc1cc(=O)n2c(OC)cccc2n1)c1ccc(F)cc1

— ChEMBL document CHEMBL5726897, “Pyridopyrimidinones and methods of use thereof” (2019)
